# US20210045385A1, “PYRIDAZINONE-SUBSTITUTED KETOXIMES AS HERBICIDES” (FMC Corporation, priority 2018, published 2021)
# Experiments:
# Format in all cases: in vivo
# [1] = test system: sedge umbrella (small-flower umbrella sedge, Cyperus difformis); test: Test D flooded paddy test, visual plant response rating; conditions: 250 g ai/ha, scale 0 to 100 (0 no effect, 100 complete control), 13 to 15 d
# Procedure, shortened: (§1)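 Greenhouse paddy assay scored on a 0–100 visual scale after 13 to 15 d, where 100 means complete control and a dash marks no result; dosing was into 3 cm floodwater over 2-leaf plants.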
# [2] = test system: duck salad (Heteranthera limosa); test: as above; conditions: 250 g ai/ha, scale 0 to 100 (0 no effect, 100 complete control), 13 to 15 d
# Procedure, shortened: as §1
# rice (Oryza sativa) = test: as above; conditions: 250 g ai/ha, scale 0 to 100 (0 no effect, 100 complete control), 13 to 15 d
# Procedure, shortened: as §1
# [3] = test system: barnyardgrass (Echinochloa crus-galli); test: as above; conditions: 250 g ai/ha, scale 0 to 100 (0 no effect, 100 complete control), 13 to 15 d
# Procedure, shortened: as §1
# [4] = test system: ragweed (common ragweed, Ambrosia artemisiifolia); test: Test C postemergence, visual plant response rating
# Procedure, shortened: (§2)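 Seeds sown in a loam–sand blend got a directed preemergence soil spray; postemergence plants (2–10 cm, one- to two-leaf stage) were sprayed with compound in a non-phytotoxic solvent plus surfactant. Injury was scored visually against untreated controls after about 10 d in a greenhouse on a 0–100 scale (100 = complete control).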
# [5] = test system: blackgrass (Alopecurus myosuroides); test: Test C postemergence, visual plant response rating
# Procedure, shortened: as §2
# [6] = test system: wheat (Triticum aestivum); test: Test C postemergence, visual plant response rating
# Procedure, shortened: as §2
# corn (Zea mays) = test: Test C postemergence, visual plant response rating
# Procedure, shortened: as §2
# [7] = test system: Italian ryegrass (Lolium mutiflorum); test: Test C postemergence, visual plant response rating
# Procedure, shortened: as §2
# [8] = test system: barnyardgrass (Echinochloa crus-galli); test: Test C postemergence, visual plant response rating
# Procedure, shortened: as §2
# [9] = test system: pigweed (Amaranthus retroflexus); test: Test C postemergence, visual plant response rating
# Procedure, shortened: as §2
# [10] = test system: galium (catchweed bedstraw, Galium aparine); test: Test C postemergence, visual plant response rating
# Procedure, shortened: as §2
# kochia (Bassia scoparia) [11] = test: Test C postemergence, visual plant response rating
# Procedure, shortened: as §2
# [12] = test system: foxtail, giant (giant foxtail, Setaria faberi); test: Test C postemergence, visual plant response rating
# Procedure, shortened: as §2
# [13] = test system: ragweed (common ragweed, Ambrosia artemisiifolia); test: Test C preemergence, visual plant response rating
# Procedure, shortened: as §2
# [14] = test system: Italian ryegrass (Lolium mutiflorum); test: Test C preemergence, visual plant response rating
# Procedure, shortened: as §2
# [15] = test system: barnyardgrass (Echinochloa crus-galli); test: Test C preemergence, visual plant response rating
# Procedure, shortened: as §2
# [16] = test system: pigweed (Amaranthus retroflexus); test: Test C preemergence, visual plant response rating
# Procedure, shortened: as §2
# kochia (Bassia scoparia) [17] = test: Test C preemergence, visual plant response rating
# Procedure, shortened: as §2
# [18] = test system: foxtail, giant (giant foxtail, Setaria faberi); test: Test C preemergence, visual plant response rating
# Procedure, shortened: as §2
# [19] = Test C, postemergence, 125 g ai/ha
# [20] = Test C, 31 g ai/ha, 0 is no effect, 100 is complete control
# [21] = Test C, 125 g ai/ha, 0 is no effect, 100 is complete control
SMILES,"Plant response rating, Sedge, Umbrella (Flood) [1]","Plant response rating, Ducksalad (Flood) [2]","Plant response rating, Rice (Flood) (rice (Oryza sativa))","Plant response rating, Barnyardgrass (Flood) [3]","Ragweed plant response rating (0 to 100 scale) ([4]; Postemergence, 31 g ai/ha)","Ragweed plant response rating (0 to 100 scale) [4, 19]","Blackgrass plant response rating (0 to 100 scale) ([5]; Postemergence, 31 g ai/ha)","Blackgrass plant response rating (0 to 100 scale) [5, 19]","Wheat plant response rating (0 to 100 scale) ([6]; Postemergence, 31 g ai/ha)","Wheat plant response rating (0 to 100 scale) [6, 19]","Corn plant response rating (0 to 100 scale) (corn (Zea mays); Postemergence, 31 g ai/ha)",Corn plant response rating (0 to 100 scale) (corn (Zea mays); [19]),"Ryegrass, Italian plant response rating (0 to 100 scale) ([7]; Postemergence, 31 g ai/ha)","Ryegrass, Italian plant response rating (0 to 100 scale) [7, 19]","Barnyardgrass plant response rating (0 to 100 scale) ([8]; Postemergence, 31 g ai/ha)","Barnyardgrass plant response rating (0 to 100 scale) [8, 19]","Pigweed plant response rating (0 to 100 scale) ([9]; Postemergence, 31 g ai/ha)","Pigweed plant response rating (0 to 100 scale) [9, 19]","Galium plant response rating (0 to 100 scale) ([10]; Postemergence, 31 g ai/ha)","Galium plant response rating (0 to 100 scale) [10, 19]",other results
C=CCON=C(c1cc(Cl)cc(Cl)c1Cl)c1c(O)c(C)nn(C)c1=O [Compound 294],0,0,0,0,80,100,0,0,0,60,0,10,50,100,20,60,20,20,80,100,"Kochia plant response rating (0 to 100 scale) (kochia (Bassia scoparia) [11]; Postemergence, 31 g ai/ha): 20; Kochia plant response rating (0 to 100 scale) (kochia (Bassia scoparia) [11]; [19]): 30; Foxtail, Giant plant response rating (0 to 100 scale) ([12]; Postemergence, 31 g ai/ha): 40; Foxtail, Giant plant response rating (0 to 100 scale) [12, 19]: 60; Ragweed plant response rating (0 to 100 scale) [13, 20]: 70; Ragweed plant response rating (0 to 100 scale) [13, 21]: 100; Ryegrass, Italian plant response rating (0 to 100 scale) [14, 20]: 60; Ryegrass, Italian plant response rating (0 to 100 scale) [14, 21]: 100; Barnyardgrass plant response rating (0 to 100 scale) [15, 20]: 70; Barnyardgrass plant response rating (0 to 100 scale) [15, 21]: 100; Pigweed plant response rating (0 to 100 scale) [16, 20]: 20; Pigweed plant response rating (0 to 100 scale) [16, 21]: 80; Kochia plant response rating (0 to 100 scale) (kochia (Bassia scoparia) [17]; [20]): 0; Kochia plant response rating (0 to 100 scale) (kochia (Bassia scoparia) [17]; [21]): 50; Foxtail, Giant plant response rating (0 to 100 scale) [18, 20]: 70; Foxtail, Giant plant response rating (0 to 100 scale) [18, 21]: 100"
C#CCON=C(c1ccc(Cl)c(Cl)c1)c1c(O)c(C)nn(C)c1=O [Compound 178],0,0,0,0,0,40,0,30,0,80,0,10,20,90,20,50,20,40,40,80,"Kochia plant response rating (0 to 100 scale) (kochia (Bassia scoparia) [11]; Postemergence, 31 g ai/ha): 40; Kochia plant response rating (0 to 100 scale) (kochia (Bassia scoparia) [11]; [19]): 70; Foxtail, Giant plant response rating (0 to 100 scale) ([12]; Postemergence, 31 g ai/ha): 10; Foxtail, Giant plant response rating (0 to 100 scale) [12, 19]: 30; Ragweed plant response rating (0 to 100 scale) ([13]; 125 g ai/ha): 40; Ragweed plant response rating (0 to 100 scale) [13, 20]: 0; Ryegrass, Italian plant response rating (0 to 100 scale) ([14]; 125 g ai/ha): 70; Ryegrass, Italian plant response rating (0 to 100 scale) [14, 20]: 0; Barnyardgrass plant response rating (0 to 100 scale) ([15]; 125 g ai/ha): 50; Barnyardgrass plant response rating (0 to 100 scale) [15, 20]: 30; Pigweed plant response rating (0 to 100 scale) ([16]; 125 g ai/ha): 70; Pigweed plant response rating (0 to 100 scale) [16, 20]: 20; Kochia plant response rating (0 to 100 scale) (kochia (Bassia scoparia) [17]; 125 g ai/ha): 0; Kochia plant response rating (0 to 100 scale) (kochia (Bassia scoparia) [17]; [20]): 0; Foxtail, Giant plant response rating (0 to 100 scale) ([18]; 125 g ai/ha): 60; Foxtail, Giant plant response rating (0 to 100 scale) [18, 20]: 10"
CO/N=C(/c1cc(Cl)cc(OC)c1)c1c(O)c(C)nn(C)c1=O [Compound 165],0,0,0,0,80,100,20,40,0,30,0,20,70,100,40,80,40,70,100,100,"Kochia plant response rating (0 to 100 scale) (kochia (Bassia scoparia) [11]; Postemergence, 31 g ai/ha): 90; Kochia plant response rating (0 to 100 scale) (kochia (Bassia scoparia) [11]; [19]): 90; Foxtail, Giant plant response rating (0 to 100 scale) ([12]; Postemergence, 31 g ai/ha): 20; Foxtail, Giant plant response rating (0 to 100 scale) [12, 19]: 70; Ragweed plant response rating (0 to 100 scale) ([13]; 125 g ai/ha): 90; Ragweed plant response rating (0 to 100 scale) [13, 20]: 50; Ryegrass, Italian plant response rating (0 to 100 scale) ([14]; 125 g ai/ha): 100; Ryegrass, Italian plant response rating (0 to 100 scale) [14, 20]: 80; Barnyardgrass plant response rating (0 to 100 scale) ([15]; 125 g ai/ha): 80; Barnyardgrass plant response rating (0 to 100 scale) [15, 20]: 60; Pigweed plant response rating (0 to 100 scale) ([16]; 125 g ai/ha): 20; Pigweed plant response rating (0 to 100 scale) [16, 20]: 0; Kochia plant response rating (0 to 100 scale) (kochia (Bassia scoparia) [17]; 125 g ai/ha): 100; Kochia plant response rating (0 to 100 scale) (kochia (Bassia scoparia) [17]; [20]): 80; Foxtail, Giant plant response rating (0 to 100 scale) ([18]; 125 g ai/ha): 70; Foxtail, Giant plant response rating (0 to 100 scale) [18, 20]: 60"
